From PMC6152084, “Synthesis of New Hydrazone Derivatives for MAO Enzymes Inhibitory Activity” (Molecules : A Journal of Synthetic Chemistry and Natural …, 2017)
Entries after “also recorded” stand apart in the source; their conditions may differ.

What was measured:
[1] = system: NIH/3T3 mouse embryonic fibroblast cell line; assay: Cytotoxicity test (MTT assay); type: cell-based; settings: for IC50: Mus musculus, NIH3T3, MTT, read-out: IC50 against NIH/3T3 cells; for cytotoxicity (in words): at effective concentration against hMAO-A
Method: In cytotoxicity test by using NIH/3T3 mouse embryonic fibroblast cell line (ATCC® CRL-1658™, London, UK), firstly NIH/3T3 cells were incubated in the Dulbecco’s Modified Eagle’s Medium (DMEM, Sigma Aldrich, St. Louis, MO, USA). NIH/3T3 cells were plated on 96-well culture plates as 10,000 cells per well and were then treated with the compounds at concentrations ranging from 1000 µM to 0.316 µM (1000, 316, 100, 31.6, 10, 3.16, 1, 0.316 µM). MTT assay was performed as previously described. Dose-response curves were plotted against compound concentrations applied to determine IC50 values.

hMAO-B = molecular target: T1, hMAO-B (Homo sapiens, UniProt P27338); assay: MAO-B inhibition assay (in vitro fluorometric Amplex Red method); type: biochemical; settings: for inhibition at 1000 µM: 10^−3 M; for inhibition at 100 µM: 10^−4 M
T1 construct: purchased Sigma-Aldrich (Steinheim, Germany)
T1 sequence (P27338 1-520): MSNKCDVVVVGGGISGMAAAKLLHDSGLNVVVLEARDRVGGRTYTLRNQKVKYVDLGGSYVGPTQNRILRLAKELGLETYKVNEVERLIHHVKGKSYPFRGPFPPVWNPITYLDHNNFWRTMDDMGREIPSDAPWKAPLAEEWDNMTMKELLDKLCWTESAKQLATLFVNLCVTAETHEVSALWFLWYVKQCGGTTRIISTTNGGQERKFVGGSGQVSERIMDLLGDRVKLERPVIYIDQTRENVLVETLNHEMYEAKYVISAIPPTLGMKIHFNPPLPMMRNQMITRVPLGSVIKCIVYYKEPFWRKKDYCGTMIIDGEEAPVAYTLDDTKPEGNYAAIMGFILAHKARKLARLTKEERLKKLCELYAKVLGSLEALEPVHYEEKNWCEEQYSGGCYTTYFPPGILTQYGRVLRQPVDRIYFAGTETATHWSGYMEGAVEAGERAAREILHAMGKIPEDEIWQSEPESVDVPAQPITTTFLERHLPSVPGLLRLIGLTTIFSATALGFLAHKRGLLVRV

Row | Compound | IC50 [1] [µM] | cytotoxicity (in words) [1] | inhibition at 1000 µM (hMAO-B) [%] | inhibition at 100 µM (hMAO-B) [%]
1 | CC1CCCCN1c1ccc(/C=N/Nc2ccccc2)cc1 (centres unmarked) [Compound 2a, 1-(4-(2-Methypiperidin-1-yl)benzylidene)-2-phenylhydrazine] | 930 ± 15.4 | non-cytotoxic; also recorded: not cytotoxic | 35 ± 0.766 | 22.1 ± 0.443
2 | CN1CCN(c2ccc(C=NNc3ccccc3)cc2)CC1 [Compound 2b, 1-(4-(4-Methylpiperazine-1-yl)benzylidene)-2-phenylhydrazine] | 20 ± 1.32 | non-cytotoxic; also recorded: not cytotoxic | 63.7 ± 1.03 | 43 ± 1.2
